Results as given in patent US10479986B2, “Nucleic acid constructs and methods for labeling and detecting nucleosomal DNA modifications” (THE BROAD INSTITUTE, INC., priority 2016, dated 2019).

How the values were obtained:
[1] = test system: H3K27ac levels in K562 cells; experiment: Western blot of H3K27ac levels in treated K562 cells; assay type: cell-based, human; conditions: 48 hr treatment, vs DMSO control
From the text: (§1) FIG. 13 is a western blot showing H3K27ac and H3K27me3 levels in K562 cells following treatment with the p300 inhibitor C646 or the EZH2 inhibitor […] (compared to a DMSO control). The total H3 is shown as loading control.
Data are typically normalized based on read numbers (“reads per million” or RPM). This presents complications when comparing between samples. To address this shortcoming, exogenous spike-in controls or semisynthetic standards were recently introduced (Bonhoure et al., 2014; Grzybowski et al., 2015; Orlando et al., 2014). The methods disclosed herein were assessed to determine whether the consistency of pooled sample processing could allow the capture of global modification levels without spike-in controls. To this end, an additional IP was included with antibody to total H3, which was used as a normalization factor for the modifications (FIG. 12). The approach for measuring global changes was tested using small molecule inhibitors. K562 cells were treated with the p300 inhibitor C646 or the EZH2 inhibitor GSK126 (Ferrari et al., 2013; McCabe et al., 2012a). Western blots confirmed that H3K27ac levels were reduced by the acetyltransferase inhibitor C646, […] (FIG. 13). […] After sequencing, the number of reads for H3K27ac and H3K27me3 were normalized to the number of reads for total H3.

[2] = test system: H3K27me3 levels in K562 cells; experiment: Western blot of H3K27me3 levels in treated K562 cells (acid extracted histones); assay type: cell-based, human; conditions: 48 hr treatment
From the text: as §1
Data are typically normalized based on read numbers (“reads per million” or RPM). This presents complications when comparing between samples. To address this shortcoming, exogenous spike-in controls or semisynthetic standards were recently introduced (Bonhoure et al., 2014; Grzybowski et al., 2015; Orlando et al., 2014). The methods disclosed herein were assessed to determine whether the consistency of pooled sample processing could allow the capture of global modification levels without spike-in controls. […] After sequencing, the number of reads for H3K27ac and H3K27me3 were normalized to the number of reads for total H3.
It is noted the methods disclosed herein are preferential to open regions, as these are more sensitive to MNase digestion. This is evident in the relatively higher proportion of H3 reads that align to euchromatic regions (2-fold enrichment; compare to 1.2-fold enrichment in conventional ChIP-seq). […] To test this, Western blots to quantify H3K27me3 levels were used in MNase digested chromatin from K562 cells treated with GSK126.

[3] = test system: H3K27ac levels in K562 cells; experiment: Multiplexed barcoded ChIP-seq (Mint-ChIP), H3K27ac reads normalized to total H3 reads; assay type: cell-based, human; conditions: 48 hours treatment
From the text: (§2) FIG. 12 is a schematic showing an example method for quantitatively normalizing sequencing data results, in accordance with certain example embodiments. The control or drug treated cells are indexed, pooled, and then split for parallel ChIP assays. The ratio between H3K27me3 reads and H3 reads is used to compare global H3K27me3 levels between sample and normalized corresponding profiles.
(§3) FIG. 14 is a set of bar graphs showing global modification levels inferred from Western blot (top) or in accordance with certain example embodiments (bottom). The respective methods were applied in parallel to the same sample of […] cells treated for 48 hours with the indicated inhibitors. The data are shown as a mean±SD of n=3 independent experiments (symbols indicate values from independent experiments).
(§4) First, procedures for simultaneously lysing and digesting chromatin from small numbers of K562 cells were modified. […]
(§5) Algorithms were developed to process Mint-ChIP seq results. First, the seq reads are de-multiplexed by index #2 to yield separate read files for each ChIP assay. Each of these read files is then further de-multiplexed by index #1 (T7-adapter barcode) to yield separate files for each sample. […] More than 90% of reads were successfully assigned to one of the T7-adapter barcodes (FIG. 5). […]

[4] = test system: H3K27me3 levels in K562 cells; experiment: Multiplexed barcoded ChIP-seq (Mint-ChIP), H3K27me3 reads normalized to total H3 reads; assay type: cell-based, human; conditions: 48 hours treatment
From the text: as §2, §3, §4, §5

[5] = test system: H3K27me3 levels in K562 cells; experiment: Western blot of H3K27me3 in MNase digested chromatin; assay type: cell-based, human; conditions: 48 hr of treatment
From the text: It is noted the methods disclosed herein are preferential to open regions, as these are more sensitive to MNase digestion. This is evident in the relatively higher proportion of H3 reads that align to euchromatic regions (2-fold enrichment; compare to 1.2-fold enrichment in conventional ChIP-seq). These ratios are small relative to enrichments in ChIP-seq peaks, which range from 5- to 100-fold. However, they could account for increased sensitivity to early changes in H3K27me3 if these were also preferential to euchromatin. To test this, Western blots to quantify H3K27me3 levels were used in MNase digested chromatin from K562 cells treated with GSK126.

[6] = test system: H3K27me3 levels in Pfeiffer cells; experiment: Mint-ChIP global H3K27me3 levels (ratio to H3 reads) after GSK126; assay type: cell-based; conditions: after 72 hr
Experimental: (§6) FIG. 20 provides a set of heat maps comparing H3K27me3 (A) and H3K27ac (B) levels in different cell lines treated with GSK126, as quantified in accordance with certain example embodiments. The experiments were performed using two different MNase concentrations.
(§7) The methods disclosed herein were used to quantitatively compare H3K27me3 and H3K27ac landscapes in these three cell lines. First, the global modification levels based on the ratio of H3K27me3 (or H3K27ac) reads to H3 reads were quantified. H3K27me3 levels were 5.1-fold greater in Pfeiffer than the other cell lines, consistent with its EZH2 activating mutation (FIG. 20).
(§8) The respective mutant lines were also treated with the EZH2 inhibitor GSK126, which reduced global H3K27me3 levels (Pfeiffer: 3.4-fold; SKM-1: 3.8-fold; and Toledo: 1.4-fold after 72 hr). Pfeiffer cells, which had the largest absolute decrease in H3K27me3, were the most sensitive to GSK126 treatment (Pfeiffer: 56±11% cell death after 3 days; SKM-1: 15±10%; and Toledo: 2±15%; FIG. 24) (McCabe et al., 2012a). H3K27me3 peaks were called in the naive and drug treated cell lines. Although treatment-associated changes in H3K27me3 are masked by conventional normalization, these changes are readily evident using the quantitative normalization inherent to the methods disclosed herein (FIG. 23). Thus, the methods disclosed herein can quantify differences in global chromatin landscapes of cancer cells representing different genotypes or drug treatments.

[7] = test system: H3K27me3 levels in SKM-1 cells; experiment: as above; assay type: cell-based; conditions: SKM-1, after 72 hr
Experimental: as §6, §7, §8

[8] = test system: H3K27me3 levels in Toledo cells; experiment: as above; assay type: cell-based; conditions: after 72 hr
Experimental: as §6, §7, §8

Pfeiffer cells = experiment: Viable cell counts following GSK126 treatment; assay type: cell-based; conditions: after 3 days
Experimental: (§9) FIG. 24 provides a set of bar plots depicting viable cell counts following 72 hour GSK126 treatment of Pfeiffer, SKM-1, and Toledo. The data are shown as mean±SD of technical triplicates×n=2 independent experiments (*p<0.05, **p<0.01, and ****p<0.0001).
as §8

SKM-1 cells = experiment: Viable cell counts following GSK126 treatment; assay type: cell-based; conditions: SKM-1, after 3 days
Experimental: as §9, §8

Toledo cells = experiment: Viable cell counts following GSK126 treatment; assay type: cell-based; conditions: after 3 days
Experimental: as §9, §8

[9] = test system: H3K4me3 levels in K562 cells; experiment: Western blot of H3K4me3 levels in treated K562 cells; assay type: cell-based, human; conditions: 96 hr treatment, vs DMSO
Experimental: FIG. 16 are Western blots showing increased H3K4me3 levels in K562 cells following treatment with the demethylase inhibitor KDM5-C70. The total H3 is shown as loading control and n=3 experiments are shown.
(§10) (Labelle et al., 2014). The chromatin of K562 cells treated with DMSO or KDM5-C70 for 96 hr were barcoded and pooled. H3K4me3 and total H3 were then assayed. After sequencing, normalization of the number of H3K4me3 reads to the number of H3 reads reflected global modification levels and was consistent between experiments and also with Western blot analysis (FIG. 16 and FIG. 17). […] This effect was obscured when the data were subjected to conventional RPM normalization (FIG. 18).

H3K4me3 in K562 cells = experiment: Multiplexed barcoded ChIP-seq (Mint-ChIP), H3K4me3 profiles with quantitative normalization to total H3; assay type: cell-based, human; conditions: 96 hr treatment, vs DMSO
From the text: FIG. 17 is a set of graphs showing global H3K4me3 levels inferred in accordance with certain example embodiments. The data are shown as ±SD of four replicates n=3 experiments are shown.
FIG. 18 is a graph showing H3K4me3 profiles scaled by conventional or quantitative normalization.
FIG. 19 provides a composite plot depicting average H3K4me3 in K562 cells treated with DMSO or KDM5-C70 (A) with 10 kb regions surrounding the centers of 36,875 peaks that are shown; a bar blot showing the fraction of peaks within size windows (B); and a Venn diagram showing the number of peaks detected in K562 cells treated with DMSO or KDM5-70 (C). The data were generated in accordance with certain example embodiments.
as §10

Row | SMILES | H3K27ac levels (Western blot) [1] | H3K27me3 levels (Western blot) [2] | ratio between H3K27ac reads and total H3 reads [3] | H3K27me3 levels (H3K27me3 reads normalized to total H3 reads) [4] | H3K27me3 levels (Western blot, MNase digested chromatin) [5] | reduction of global H3K27me3 levels [6] [fold] | reduction of global H3K27me3 levels [7] [fold] | reduction of global H3K27me3 levels [8] [fold] | cell death (Pfeiffer cells) [%] | cell death (SKM-1 cells) [%] | cell death (Toledo cells) [%] | H3K4me3 levels (Western blot) [9] | H3K4me3 coverage, domains and peaks (H3K4me3 in K562 cells) | H3K4me3 peak intensity (tracks scaled by inferred global levels) (H3K4me3 in K562 cells; quantitative normalization)
1 | CC1=NN(c2ccc(C(=O)O)cc2)C(=O)/C1=C\c1ccc(-c2cc(C)c(C)cc2[N+](=O)[O-])o1 [C646] | reduced | did not detect significant changes | decreased | – | – | – | – | – | – | – | – | – | – | –
2 | CC[C@H](C)n1cc(C)c2c(C(=O)NCc3c(C)cc(C)[nH]c3=O)cc(-c3ccc(N4CCNCC4)nc3)cc21 [GSK126] | increased | did not detect significant changes | increased | consistent reduction | Consistent reductions | 3.4 | 3.8 | 1.4 | 56±11 | 15±10 | 2±15 | – | – | –
3 | CCOC(=O)c1ccnc(CNCC(=O)N(CC)CCN(C)C)c1 [KDM5-C70] | – | – | – | – | – | – | – | – | – | – | – | increased | increases H3K4me3 coverage and widens existing domains, while also generating new H3K4me3 peaks | increased peak intensity
